Reference: the NIST ThermoML archive (doi:10.1021/acs.jced.7b00802)
Numbers after ± are expanded uncertainties.

Settings: Liquid, Ebulliometric method (Recirculating still)

## COCCOC [1,2-dimethoxyethane]
357.75 K
  vapor or sublimation pressure: 101.3 ± 0.8 kPa

## CCCCCC [hexane]
341.88 K
  vapor or sublimation pressure: 101.3 ± 0.8 kPa

## CC1CCCC1 [methylcyclopentane]
344.96 K
  vapor or sublimation pressure: 101.3 ± 0.8 kPa
